Data: patent US20250257077A1, “BRIDGED BICYCLIC HETEROCYCLOALKYL PYRIDO-[3,4-d]PYRIDAZINE AMINE DERIVATIVES USEFUL AS NLRP3 INHIBITORS” (Ventus Therapeutics U.S., Inc., priority 2022, published 2025)
Converted amounts (≈) assume the structure as drawn. Like-named read-outs stand apart in the source and are kept apart here.

What was measured:
[1] = molecular target: T1, human NLRP3 (Homo sapiens, UniProt Q96P20); assay: Human Whole Blood (hWB) NLRP3 Assay; assay type: cell-based; conditions: LPS priming, ATP activation, IL-1β levels
T1 construct: Human whole blood is drawn from healthy volunteers after obtaining written informed consent; from tissue
T1 sequence (Q96P20 whole entry): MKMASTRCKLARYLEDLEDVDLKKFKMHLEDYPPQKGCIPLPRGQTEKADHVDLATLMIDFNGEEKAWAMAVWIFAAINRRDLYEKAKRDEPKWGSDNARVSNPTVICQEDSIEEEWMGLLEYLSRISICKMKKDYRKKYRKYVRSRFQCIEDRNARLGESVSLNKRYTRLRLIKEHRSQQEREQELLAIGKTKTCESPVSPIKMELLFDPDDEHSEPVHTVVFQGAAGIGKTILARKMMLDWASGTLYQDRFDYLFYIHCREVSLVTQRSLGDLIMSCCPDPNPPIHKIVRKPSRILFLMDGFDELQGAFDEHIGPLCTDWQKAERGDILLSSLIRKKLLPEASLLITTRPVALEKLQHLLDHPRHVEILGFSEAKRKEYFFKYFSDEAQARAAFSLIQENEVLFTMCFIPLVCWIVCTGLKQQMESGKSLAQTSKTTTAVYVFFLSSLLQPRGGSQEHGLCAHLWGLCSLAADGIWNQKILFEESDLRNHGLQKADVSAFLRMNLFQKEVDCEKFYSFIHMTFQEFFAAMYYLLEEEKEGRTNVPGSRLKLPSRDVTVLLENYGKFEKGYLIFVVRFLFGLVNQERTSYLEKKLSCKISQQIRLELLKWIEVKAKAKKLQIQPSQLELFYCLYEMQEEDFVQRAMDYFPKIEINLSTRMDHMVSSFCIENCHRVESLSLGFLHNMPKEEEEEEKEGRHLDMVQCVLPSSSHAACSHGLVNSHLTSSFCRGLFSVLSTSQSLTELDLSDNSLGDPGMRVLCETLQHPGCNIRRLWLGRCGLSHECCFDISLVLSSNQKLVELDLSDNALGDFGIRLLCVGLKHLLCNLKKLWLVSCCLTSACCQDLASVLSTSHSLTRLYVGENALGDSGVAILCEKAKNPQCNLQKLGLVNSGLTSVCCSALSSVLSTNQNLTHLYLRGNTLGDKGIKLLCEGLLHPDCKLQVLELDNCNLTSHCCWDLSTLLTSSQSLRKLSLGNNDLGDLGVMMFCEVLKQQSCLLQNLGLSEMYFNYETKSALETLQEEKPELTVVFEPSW
Experimental: (ii) Human Whole Blood (hWB) NLRP3 Assay
Human whole blood is drawn from healthy volunteers after obtaining written informed consent. Heparin lithium coated tubes are used to collect blood from volunteers. Blood samples are distributed on 96 well plates using 90 μl per well. Priming is performed by adding 5 μl of LPS (026: B6; Sigma L-2654) at a final concentration of 1 μg/ml for 4.5 hours in a humidified incubator with 37° C. 5% CO2. Thirty minutes prior to NLRP3 activation, 5 μl of a 20× compound solution or vehicle (2% dimethylsulfoxide (DMSO)) is added to each well and plates were incubated on a shaker (450 rpm) in a humidified incubator with 37° C., 5% CO2. Activation is then performed by adding 3.3 μl of a 31× ATP solution per well. At the end of the 30 minutes stimulation, the plates are centrifuged (800 g, 10 min, room temperature) and the plasma from each well is frozen at −80° C. IL-1β levels in the supernatant were analyzed using a mesoscale discovery assay (MSD K151TUK) according to the manufacturers’ instructions.

[2] = Solubility Protocol in Phosphate Buffered Saline (PBS); assay type: physicochemical; conditions: for solubility kinetic at 2 h / solubility at 2 h: phosphate buffered saline (PBS), 18 °C, kinetic from dmso stock; for solubility kinetic at 2 h: aqueous buffer; for solubility kinetic at 2 h / Sol (PBS): PBS pH 7.4, 2 hours at room temperature, kinetic solubility; for solubility at 2 h: pH 7.4, aqueous buffer
Experimental: (vi) Solubility Protocol in Phosphate Buffered Saline (PBS)
The kinetic solubility of test compounds and control compounds was measured in commercial phosphate buffered saline (PBS), pH 7.4 (Wisent, Canada).
Briefly, a stock solution (20 mM DMSO for controls, and 10 mM DMSO for test compounds) was combined with PBS buffer to reach a targeted concentration of 400 μM for controls and 200 μM for test compounds. The spiked-PBS mixtures were then agitated on a VX-2500 multi-tube vortexer (VWR) for 2 hours at room temperature (18° C.). Following agitation, the samples were filtered on a glass fiber filter (1 μm) and the eluates were diluted 400-fold with a mixture of acetonitrile:water (1:1). Solubility determination was then performed against one standard sample prepared in high organic content at the expected top concentration. The lower limit of quantification was arbitrarily set at 1 μM (400-fold dilution of the top concentration) for assay controls, and 0.5 μM for test compounds. On each experimental run, nicardipine and imipramine were assessed as reference compounds for low and high solubility, respectively. All samples were assessed in triplicate and analyzed by LC-MS/MS (using a CTC PAL autosampler, Thermo Accela UPLC, and a Thermo Quantum mass spectrometer) using electrospray ionization against standards prepared in the same matrix

[3] = Human Hepatocyte Stability Assay; assay type: in vitro ADME; conditions: human hepatocytes, 37° C.; read-out: Hep (human) (t½ min)
Experimental: (§1) (v) Mouse and Human Hepatocyte Stability Assays
(§2) A hepatocyte stability assay is a laboratory-based method used to determine the metabolic stability of a compound in hepatocytes (liver cells). This assay provides valuable information about how quickly a drug is metabolized in the liver and can be used to assess its potential effectiveness and safety in drug discovery.
(§3) In the assay, cither human or mouse hepatocytes are incubated with the test compound at a controlled temperature of 37° C., for different time periods (e.g., 5, 15, 30, 60, and 120 minutes). At each time point during the incubation, samples are taken, the reaction is terminated, and the amount of test compound remaining analyzed using LC-MS/MS to monitor the disappearance of the test compound over time (Gradient). […] See, e.g., Coe et al., Methods in Pharmacology & Toxicology (2008) 151.

[4] = Brain Levels (Kp and Kpu,u); assay type: in vivo, CDI mice; conditions: for Kp at 24 h: mice dosed at 20 mpk PO, whole brain AUC over 24 h divided by plasma AUC
Experimental: (iv) Brain Levels (Kp and Kpu,u)—NLRP3
The in vivo total brain to plasma ratio was assessed in CDI mice after oral administration of the compound. Blood was collected at several timepoints up to 24 h, and transferred into plastic micro centrifuge tubes with EDTA-K2 as anticoagulant. Blood samples were centrifuged at 4000 g for 5 minutes at 4° C., to obtain plasma, then immediately frozen and stored at −75±15° C., prior to analysis. Animals were terminally anaesthetized with a rising concentration of CO2 gas at about 1 minute. At selected timepoints, whole brains were removed from the skull, rinsed in cold PBS to remove blood, dried with clean gauze, then frozen in liquid nitrogen and kept at −75±15° C. before analysis. At the time of analysis, brain samples were homogenized with PBS by tissue weight (g) to PBS volume (mL) ratio 1:3.
Plasma and brain drug levels were quantified by LC/MS/MS on an AB Sciex Triple Quad 5500+instrument, after separation on a HALO 160 A ES-C18, 2.7 μm 2.1×50 mm column. Quantitation was performed using a calibration curve prepared in blank plasma or blank brain homogenate. The software WinNonlin (Phoenix™) was used for pharmacokinetic analysis from the concentrations versus time data, including the AUCinf and AUClast. The Kp ratio (total brain concentration over total plasma concentration) was calculated as (AUCtot,br)/(AUCtot,pl).
The unbound brain exposure was assessed as Kpuu, which is the free brain/free plasma concentration ratio (Cu,bt/Cu,pl). The Cu,br/Cu,pl ratios were obtained from in vivo total brain to plasma ratios (Ctot,br/Ctot,pl) by using in vitro determined Fu,br and Fu,pl.
Plasma protein binding and brain homogenate protein binding were measured by equilibrium dialysis in a HTDialysis plate. The dialysis membranes were soaked in ultrapure water for 60 minutes to separate strips, then in 20% ethanol for 20 minutes, finally in dialysis buffer for 20 minutes. The dialysis set up was assembled according to the manufacturer's instruction. Each cell received 150 μL of plasma or brain homogenate spiked with 1 mM of compound, and dialyzed against an equal volume of dialysis buffer (PBS). The dialysis plate was sealed and incubated in an incubator at 37° C. with 5% CO2 at 100 rpm for 6 hours. At the end of incubation, compound concentration was measured in both chambers by LC-MS/MS on a Triple Quad™ 5500 from AB Inc after separation on a XSelect Hss T3.2.5μ (2.1×30 mm) column. Free fraction (Fu) was calculated as (Peak Area Ratio buffer chamber/Peak Area Ratio plasma chamber). Kpuu=(AUCtot,br×Fu,br)/([…])
The Kpu,u was then calculated upon correcting this kp value with mouse plasma protein binding and mouse brain homogenates binding.
A Kpu,u value >0.3 is considered brain penetrant, and a Kpu,u value ≤0.3 is not considered brain penetrant. When the Kpu,u value is not determined, the Kp value may be useful as a metric of potential brain penetrance if the Kp value is >0.3.

[5] = Mouse Hepatocyte Stability Assay; assay type: in vitro ADME; conditions: mouse hepatocytes, 37° C.; read-out: Hep (mouse) (t½ min)
Experimental: as §1, §2, §3

[6] = CDI, mouse, brain (whole brain homogenate) relative to plasma, oral, 20 mpk, brain levels, mice
[7] = CDI, mouse, brain (whole brain homogenate) relative to plasma, po, 20 mg/kg, Kp corrected with mouse plasma protein binding and mouse brain homogenates binding, 20 mpk PO, read-out: Kpu,u
[8] = CDI, mouse, brain (whole brain homogenate) relative to plasma, po, 20 mg/kg
[9] = CDI, mouse, brain (whole brain homogenate) relative to plasma, oral, 20 mpk, brain levels, unbound, mice, read-out: Kpu,u

Row | SMILES | IC50 [1] | solubility kinetic at 2 h [2] | solubility at 2 h [2] | half-life [3] | Kp [4, 6] | Kpu,u [4, 7] | Kp at 24 h [4, 8] | Kpu,u ([4]; brain levels, unbound, mice) | half-life [5] | Sol (PBS) [2] | Kpu,u [4, 9]
1 | Oc1cc(Cl)ccc1-c1nnc(N[C@@H]2C[C@@H]3CC[C@H]2O3)c2cnccc12 (single isomer, unassigned) [Compound 3A*] | 1.16 µM | > 300 µM | > 300 µM | > 4 h | 0.3 | 0.15 | 0.3 | 0.15 — | 2.17 h |  | 
2 | Oc1cc(C(F)(F)F)ccc1-c1nnc(N[C@@H]2C[C@@H]3CC[C@H]2O3)c2cnccc12 (single isomer, unassigned) [Compound 10A*] | 0.92 µM |  | 2.1 µM (≈ 0.845 µg/mL) | 3.17 h | 0.46 | 0.49 | 0.46 | 0.49 | 1.83 h | 2.1 µM | 
3 | Oc1cc(C(F)(F)F)ccc1-c1nnc(N[C@H]2C[C@H]3CC[C@@H](C2)O3)c2cnccc12 [Compound 4A*-r, 2-(4-(((1R,3r,5S)-8-oxabicyclo[3.2.1]octan-3-yl)amino)pyrido[3,4-d]pyridazin-1-yl)-5-(trifluoromethyl)phenol] | 1.1 µM |  | 2.4 µM (≈ 0.999 µg/mL) | > 8 h | 0.13 | 0.09 | 0.13 |  | 3.33 h | 2.4 µM | 0.09
4 | Oc1cc(C(F)F)ccc1-c1nnc(N[C@H]2C[C@H]3CC[C@@H](C2)O3)c2cnccc12 [Compound 11A*-r, 2-(4-(((1R,3r,5S)-8-oxabicyclo[3.2.1]octan-3-yl)amino)pyrido[3,4-d]pyridazin-1-yl)-5-(difluoromethyl)phenol] | 0.81 µM | 0.7 µM (≈ 0.279 µg/mL) |  | > 4 h |  | 0.06 | 0.08 |  | 3.83 h | 0.7 µM | 

Stronger by IC50 [1], values ahead:

Row | IC50 [1] | solubility kinetic at 2 h [2] | solubility at 2 h [2] | half-life [3] | Kp [4, 6] | Kpu,u [4, 7] | Kp at 24 h [4, 8] | Kpu,u ([4]; brain levels, unbound, mice) | half-life [5] | Sol (PBS) [2] | Kpu,u [4, 9] | SMILES
5 | 0.34 µM | 1.4 µM (≈ 0.583 µg/mL) |  | 4.83 h |  | 0.08 | 0.1 |  | 1.67 h | 1.4 µM |  | Oc1cc(C(F)(F)F)ccc1-c1nnc(N[C@H]2[C@@H]3CC[C@H]2COC3)c2cnccc12 [Compound 13A, 2-(4-(((1R,5S,8s)-3-oxabicyclo[3.2.1]octan-8-yl)amino)pyrido[3,4-d]pyridazin-1-yl)-5-(trifluoromethyl)phenol]
6 | 0.34 µM | > 300 µM |  | > 8 h |  | 0.45 | 0.41 |  | 0.483 h | >300 µM |  | Cc1ccc(-c2nnc(N[C@H]3[C@@H]4CC[C@H]3COC4)c3cnccc23)c(O)c1F [Compound 15A, 6-(4-(((1R,5S,8s)-3-oxabicyclo[3.2.1]octan-8-yl)amino)pyrido[3,4-d]pyridazin-1-yl)-2-fluoro-3-methylphenol]
7 | 0.33 µM |  | 1.9 µM (≈ 0.689 µg/mL) | > 8 h | 0.27 | 0.16 | 0.27 |  | 1.18 h | 1.9 µM | 0.16 | Cc1ccc(-c2nnc(N[C@H]3C[C@H]4CC[C@@H](C3)O4)c3cnccc23)c(O)c1 [Compound 2A*-r, 2-(4-(((1R,3r,5S)-8-oxabicyclo[3.2.1]octan-3-yl)amino)pyrido[3,4-d]pyridazin-1-yl)-5-methylphenol]
8 | 0.2 µM | > 300 µM |  | > 4 h |  | 0.51 | 0.76 |  | 2.67 h | >300 µM |  | Cc1ccc(-c2nnc(N[C@H]3[C@@H]4CC[C@H]3COC4)c3cnccc23)c(O)c1 [Compound 6A, 2-(4-(((1R,5S,8s)-3-oxabicyclo[3.2.1]octan-8-yl)amino)pyrido[3,4-d]pyridazin-1-yl)-5-methylphenol]
9 | 0.2 µM | 11 µM (≈ 4.38 µg/mL) |  | > 8 h |  | 0.2 | 0.37 |  | 2 h | 11 µM |  | Oc1cc(C(F)F)ccc1-c1nnc(N[C@H]2[C@@H]3CC[C@H]2COC3)c2cnccc12 [Compound 14A, 2-(4-(((1R,5S,8s)-3-oxabicyclo[3.2.1]octan-8-yl)amino)pyrido[3,4-d]pyridazin-1-yl)-5-(difluoromethyl)phenol]
10 | 0.15 µM |  | 25 µM (≈ 9.57 µg/mL) | > 4 h | 0.87 | 0.44 | 0.87 |  | 2.67 h | 25 µM | 0.44 | Oc1cc(Cl)ccc1-c1nnc(N[C@H]2[C@@H]3CC[C@H]2COC3)c2cnccc12 [Compound 5A, 2-(4-(((1R,5S,8s)-3-oxabicyclo[3.2.1]octan-8-yl)amino)pyrido[3,4-d]pyridazin-1-yl)-5-chlorophenol]
